system: Western Flower Thrips (Frankliniella occidentalis); assay: Insecticidal test against western flower thrips, sprayed cucumber leaves (Test Example 3); type: in vivo; details: 500 ppm, sprayed 20 ml/cup onto cucumber, thirty larvae on cut first foliage leaves, after 7 days
Procedure: A formulation of a test compound obtained in Formulation Example 5 was diluted with water so that the active ingredient concentration came to 500 ppm to prepare a test spray solution. The seeds of cucumber were planted in polyethylene cups and grown until their first foliage leaves developed, and the above test spray solution was sprayed at the rate of 20 ml/cup onto these cucumber plants. After the chemical solution sprayed onto the cucumber plants was dried, the first foliage leaves were cut off and placed on a water-containing filter paper (70 mm in diameter) in a polyethylene cup (110 mm in diameter). Thirty larvae of western flower thrips (Frankliniella occidentalis) were set free in the polyethylene cup, and the lid was put on the polyethylene cup. After 7 days, the number of surviving insects was examined.

Row | Compound | number of surviving insects
1 | CC#CCOc1ncnc(Oc2cccc(F)c2F)c1F [(180)] | zero
2 | CC#CCOc1cc(OC2CCCC(C)C2)ncn1 (centres unmarked) [(182)] | zero
3 | CC#CCOc1ncnc(Oc2ccccc2F)c1F [(183)] | zero
4 | CC#CCOc1ncnc(Oc2c(F)cccc2F)c1F [(190)] | zero
5 | CC#CCOc1ncnc(Cc2ccccc2F)c1F [(191)] | zero

Reference: patent US7291730B2, “Pyrimidine compounds and their use” (Sumitomo Chemical Company, Limited, priority 2000, dated 2007)
